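Test compounds were applied to cells in 96-well plates for 48 hours at 5 doses. The concentration for 50% growth inhibition is given as GI50.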 The source made the active and inactive calls. No stated cut-off is given here; in the data, active = GI50 up to about 1.1 µM and inactive = higher.
What was measured:
Test in all cases: DTP human tumour cell line panel, 48 h
LOX IMVI = test system: LOX IMVI
IGROV-1 = test system: IGROV-1
HCT-116 = test system: HCT-116
BT-549 = test system: BT-549
T47D = test system: T47D
HL-60 = test system: HL-60
MDA-MB-231 = test system: MDA-MB-231
UO-31 = test system: UO-31
A549 = test system: A549
OVCAR-5 = test system: OVCAR-5
SNB-75 = test system: SNB-75
SF-539 = test system: SF-539
SF-295 = test system: SF-295
Hs-578T = test system: Hs-578T
NCI/ADR-RES = test system: NCI/ADR-RES
Malme-3M = test system: Malme-3M
SR = test system: SR
EKVX = test system: EKVX
OVCAR-4 = test system: OVCAR-4
NCI-H522 = test system: NCI-H522

Row | SMILES | GI50 (LOX IMVI) | GI50 (IGROV-1) | GI50 (HCT-116) | GI50 (BT-549) | GI50 (T47D) | GI50 (HL-60) | GI50 (MDA-MB-231) | GI50 (UO-31) | GI50 (A549) | GI50 (OVCAR-5) | GI50 (SNB-75) | GI50 (SF-539) | GI50 (SF-295) | GI50 (Hs-578T) | GI50 (NCI/ADR-RES) | GI50 (Malme-3M) | GI50 (SR) | GI50 (EKVX) | GI50 (OVCAR-4) | GI50 (NCI-H522)
1 | NP1(Oc2ccc(F)cc2)=NP(N)(Oc2ccc(F)cc2)=NP(Oc2ccc(F)cc2)(Oc2ccc(F)cc2)=N1 (stereo not given) | 6.84 µM (inactive) | 2.54 µM (inactive) | 4.58 µM (inactive) | 2.23 µM (inactive) | 2.4 µM (inactive) | 5.09 µM (inactive) | 11.4 µM (inactive) | 4.06 µM (inactive) | 3.99 µM (inactive) | 11.5 µM (inactive) | 3.67 µM (inactive) | 14.5 µM (inactive) | 4.4 µM (inactive) | 5.64 µM (inactive) | 6.17 µM (inactive) | 5.27 µM (inactive) | 4.56 µM (inactive) | 6.82 µM (inactive) |  | 
2 | Cc1cccc(-c2cccc(COCc3cccc(-c4cccc(CO)n4)n3)n2)n1 | > 50 µM (inactive) | 13 µM (inactive) | > 50 µM (inactive) | 19.3 µM (inactive) | 31.2 µM (inactive) | 8.28 µM (inactive) | 24.2 µM (inactive) | > 50 µM (inactive) | > 50 µM (inactive) | > 50 µM (inactive) | > 50 µM (inactive) | > 50 µM (inactive) | > 5 µM (inactive) | 35.7 µM (inactive) | 5.26 µM (inactive) |  | > 50 µM (inactive) | 35.5 µM (inactive) | > 50 µM (inactive) | > 50 µM (inactive)
3 | C(/C=N/N=C1NCCCN1)=N\N=C1NCCCN1 | > 100 µM (inactive) | > 100 µM (inactive) | > 100 µM (inactive) | > 100 µM (inactive) | > 100 µM (inactive) |  | > 100 µM (inactive) | > 100 µM (inactive) | > 100 µM (inactive) | > 100 µM (inactive) | > 100 µM (inactive) | > 100 µM (inactive) | > 10 µM (inactive) | > 100 µM (inactive) | > 100 µM (inactive) | > 100 µM (inactive) | > 100 µM (inactive) | > 100 µM (inactive) | > 100 µM (inactive) | > 100 µM (inactive)
4 | COc1ccccc1N1C(=O)/C(=C\c2ccccc2)SC1c1cc(OC)c(OC)c(OC)c1 (stereo not given) | 21.9 µM (inactive) |  | 31.8 µM (inactive) | 34.8 µM (inactive) | 5.97 µM (inactive) |  | 23.2 µM (inactive) | 45.4 µM (inactive) | 40.7 µM (inactive) | 62.5 µM (inactive) |  |  | 30.1 µM (inactive) | 33.7 µM (inactive) | 32.1 µM (inactive) | 45.5 µM (inactive) | 33.7 µM (inactive) | 37.8 µM (inactive) | 53.5 µM (inactive) | 22.2 µM (inactive)
5 | CC(C)C(N)(C(=O)O)c1ccccc1 (stereo not given) | > 100 µM (inactive) | > 100 µM (inactive) | > 100 µM (inactive) | > 100 µM (inactive) | > 100 µM (inactive) | > 100 µM (inactive) | > 100 µM (inactive) | > 100 µM (inactive) | > 100 µM (inactive) | > 100 µM (inactive) | > 100 µM (inactive) |  | > 100 µM (inactive) | > 100 µM (inactive) | > 100 µM (inactive) | > 100 µM (inactive) | > 100 µM (inactive) | > 100 µM (inactive) | > 100 µM (inactive) | > 100 µM (inactive)
6 | Cc1cc2ccc(N)nc2nc1O |  | > 100 µM (inactive) | > 100 µM (inactive) | > 100 µM (inactive) | > 100 µM (inactive) | > 100 µM (inactive) | > 100 µM (inactive) | > 100 µM (inactive) | > 100 µM (inactive) | > 100 µM (inactive) | > 100 µM (inactive) | > 100 µM (inactive) | > 100 µM (inactive) | > 100 µM (inactive) | > 100 µM (inactive) | > 100 µM (inactive) | > 100 µM (inactive) | > 100 µM (inactive) |  | 49.2 µM (inactive)
7 | O=CN(CCN1CCCC1)C1CCc2cc(Cl)c(Cl)cc2C1 (stereo not given) | 14 µM (inactive) | 22.1 µM (inactive) | 10.6 µM (inactive) | 14.1 µM (inactive) | 11.1 µM (inactive) | 19.2 µM (inactive) | 11 µM (inactive) | 14.1 µM (inactive) | 7.71 µM (inactive) | 17.4 µM (inactive) |  | 30.5 µM (inactive) | 0.166 µM (active) | 13.6 µM (inactive) | 19.5 µM (inactive) | 13.6 µM (inactive) | 23.9 µM (inactive) | 27.2 µM (inactive) | 18.7 µM (inactive) | 10.1 µM (inactive)
8 | CCOP(=O)(OCC)C(C)(CC)NC1=NC(C(F)(F)F)(C(F)(F)F)NC(=O)N1 (stereo not given) | > 100 µM (inactive) | 70.1 µM (inactive) | > 100 µM (inactive) | > 100 µM (inactive) | 82 µM (inactive) | > 100 µM (inactive) | > 100 µM (inactive) | > 100 µM (inactive) | > 100 µM (inactive) | > 100 µM (inactive) | > 100 µM (inactive) | > 100 µM (inactive) | > 100 µM (inactive) | 29.8 µM (inactive) | > 100 µM (inactive) | > 100 µM (inactive) | > 100 µM (inactive) | > 100 µM (inactive) | > 100 µM (inactive) | 
9 | CCOC(=O)c1nc2ccc(C(F)(F)F)cc2nc1Oc1ccc(C#N)cc1 | 39.6 µM (inactive) | 14.5 µM (inactive) | 48.5 µM (inactive) | 18.8 µM (inactive) | 28.4 µM (inactive) | > 100 µM (inactive) | 12.9 µM (inactive) | 40.3 µM (inactive) |  |  | 14.5 µM (inactive) | 19.5 µM (inactive) | 14.8 µM (inactive) | 14.3 µM (inactive) | 18.2 µM (inactive) |  | 81.5 µM (inactive) | 14 µM (inactive) | 29.6 µM (inactive) | 
10 | C/C(=N\N=C(\N)SB(F)F)c1ccc2ccccc2c1 | 56.4 µM (inactive) | > 100 µM (inactive) | > 100 µM (inactive) | > 100 µM (inactive) | > 100 µM (inactive) |  | > 100 µM (inactive) | > 100 µM (inactive) | > 100 µM (inactive) | > 100 µM (inactive) | > 100 µM (inactive) | > 100 µM (inactive) | > 100 µM (inactive) | > 100 µM (inactive) | > 100 µM (inactive) | > 100 µM (inactive) | 54.5 µM (inactive) | > 100 µM (inactive) | > 100 µM (inactive) | 25.6 µM (inactive)
11 | CCOC(=O)c1c(N2CCOCC2)[nH]c(=O)c(C(c2ccc(OC)cc2)c2c(O)c(C(=O)OCC)c(N3CCOCC3)[nH]c2=O)c1O | > 100 µM (inactive) |  | > 100 µM (inactive) | > 100 µM (inactive) | > 100 µM (inactive) |  | > 100 µM (inactive) | > 100 µM (inactive) | > 100 µM (inactive) | > 100 µM (inactive) | > 100 µM (inactive) | > 100 µM (inactive) | > 100 µM (inactive) | > 100 µM (inactive) | > 100 µM (inactive) | > 100 µM (inactive) | > 100 µM (inactive) | > 100 µM (inactive) | > 100 µM (inactive) | > 100 µM (inactive)
12 | NS(=O)(=O)c1ccc(NC(=S)N/C=C2\C(=O)Nc3ccccc3C2=O)cc1 | > 100 µM (inactive) | > 100 µM (inactive) | > 100 µM (inactive) | > 100 µM (inactive) | > 100 µM (inactive) | 2.07 µM (inactive) | > 100 µM (inactive) | > 100 µM (inactive) | > 100 µM (inactive) | > 100 µM (inactive) | > 100 µM (inactive) | > 100 µM (inactive) | > 100 µM (inactive) | > 100 µM (inactive) | > 100 µM (inactive) |  | > 100 µM (inactive) | > 100 µM (inactive) | > 100 µM (inactive) | > 100 µM (inactive)
13 | Nc1nccc(NCC2(CO)CCC2)n1 | > 100 µM (inactive) | > 100 µM (inactive) | > 100 µM (inactive) | > 100 µM (inactive) | > 100 µM (inactive) | > 100 µM (inactive) | > 100 µM (inactive) | > 100 µM (inactive) | > 100 µM (inactive) | > 100 µM (inactive) | > 100 µM (inactive) | > 100 µM (inactive) | > 100 µM (inactive) | > 100 µM (inactive) | > 100 µM (inactive) | > 100 µM (inactive) | > 100 µM (inactive) | > 100 µM (inactive) |  | > 100 µM (inactive)
14 | CC(C)c1nc2cc(C(F)(F)F)ccc2[nH]c1=O |  | > 100 µM (inactive) | 62.2 µM (inactive) | > 100 µM (inactive) | > 100 µM (inactive) | 54 µM (inactive) | 69 µM (inactive) | > 100 µM (inactive) | 53.6 µM (inactive) | > 100 µM (inactive) | 34.4 µM (inactive) | > 100 µM (inactive) | > 100 µM (inactive) | 3.4 µM (inactive) | 57.8 µM (inactive) | > 100 µM (inactive) | 43.3 µM (inactive) | 7 µM (inactive) | 94.8 µM (inactive) | 39 µM (inactive)
15 | O=C(/C=C/c1ccc(/C=C/C(=O)c2ccc(O)cc2)cc1)c1ccc(O)cc1 | 33.8 µM (inactive) | > 10 µM (inactive) | > 100 µM (inactive) | > 100 µM (inactive) | > 100 µM (inactive) | > 100 µM (inactive) | > 100 µM (inactive) | > 100 µM (inactive) | > 100 µM (inactive) | > 100 µM (inactive) | > 100 µM (inactive) | > 100 µM (inactive) | > 100 µM (inactive) | > 100 µM (inactive) | > 100 µM (inactive) |  | > 100 µM (inactive) | > 100 µM (inactive) |  | > 10 µM (inactive)

From ChEMBL document CHEMBL1201862, “PubChem BioAssay data set” (2004)
